Several values for one entry are separate records, joined by “and”; a condition that tells them apart may be missing. Equal entries are not always repeated.
Test system: collagen-induced arthritis in Lewis rats
Assay: Collagen-induced arthritis (CIA) model in rats: body weight, paw volume, clinical scores, clinical observations
[1] = Group 5 (CIA + Example 101 3 mg/kg), Day 13, individual animals, 3 mg/kg
[2] = Group 5 (CIA + Example 101 3 mg/kg), Day 16, individual animals, 3 mg/kg
[3] = Group 5 (CIA + Example 101 3 mg/kg), Day 17, individual animals, 3 mg/kg
[4] = Group 5 (CIA + Example 101 3 mg/kg), Day 20, individual animals, 3 mg/kg
[5] = Group 6 (CIA + Example 101 10 mg/kg), Day 2, individual animals, 10 mg/kg
[6] = Group 6 (CIA + Example 101 10 mg/kg), Day 5, individual animals, 10 mg/kg
[7] = Group 6 (CIA + Example 101 10 mg/kg), Day 6, individual animals, 10 mg/kg
[8] = Group 6 (CIA + Example 101 10 mg/kg), Day 7, individual animals, 10 mg/kg
[9] = Group 6 (CIA + Example 101 10 mg/kg), Day 13, individual animals, 10 mg/kg
[10] = Group 6 (CIA + Example 101 10 mg/kg), Day 15, individual animals, 10 mg/kg
[11] = Group 6 (CIA + Example 101 10 mg/kg), Day 18, individual animals, 10 mg/kg
[12] = Group 6 (CIA + Example 101 10 mg/kg), Day 19, individual animals, 10 mg/kg
[13] = Group 6 (CIA + Example 101 10 mg/kg), Day 20, individual animals, 10 mg/kg
[14] = Group 7 (CIA + Example 101 30 mg/kg), Day 1, individual animals, 30 mg/kg
[15] = Group 7 (CIA + Example 101 30 mg/kg), Day 9, individual animals, 30 mg/kg
[16] = Group 7 (CIA + Example 101 30 mg/kg), Day 11, individual animals, 30 mg/kg
[17] = Group 7 (CIA + Example 101 30 mg/kg), Day 12, individual animals, 30 mg/kg
[18] = Group 7 (CIA + Example 101 30 mg/kg), Day 13, individual animals, 30 mg/kg
[19] = Group 7 (CIA + Example 101 30 mg/kg), Day 15, individual animals, 30 mg/kg
[20] = Group 7 (CIA + Example 101 30 mg/kg), Day 17, individual animals, 30 mg/kg
[21] = Group 7 (CIA + Example 101 30 mg/kg), Day 20, individual animals, 30 mg/kg
[22] = Group 7 (CIA + Example 101 30 mg/kg), Day 21, individual animals, 30 mg/kg

Method: Prior to be randomly placed in treatment groups, animals were weighed, and paw volume was measured. Once randomly assigned to treatment groups, on Day 0, animals in groups 2-9 were immunized by subcutaneous injection at the base of the tail. The immunization comprised 100 μL of the CFA+Collagen emulsion (prepared according to the method in Experimental Method A). Animals in group one received no immunization. Seven days after the first injection, animals in groups 2-9 received a booster immunization comprising 200 μL of the IFA+Collagen emulsion (prepared according to the method in Experimental Method A).
Starting on Day 0, animals in group 1 and 2 were administered daily doses of the vehicle per os (P.O.) for 21 days.
The twice daily doses for animals in groups 4-9 were 8 hours apart (e.g., the first dose at 8:00 AM and the second dose at 4:00 PM).
Body weight of all animals was recorded daily for the 21-day period. Blind clinical scores on all four limbs were conducted for all animals in the study. Animals were assessed prior to receiving their first dose of the compound or control, and scores for each limb were combined to a total daily score for each animal. Clinical score assessments were performed on Day 0, 6, 12, 13, 14, 15, 18, 19, and 21 (for a total of 9 daily scores).
Paw volume was recorded for each animal on Day 0, 6, 12, 13, 14, 15, 18, 19, and 21 (for a total of 9 measurements). To measure paw volume, animals were gently held with one hand while the hind paw was placed into a plethysmometer with the other hand. Lipid displacement by the paw was recorded and used to represent paw volume.
At the conclusion of the study (end of the 21-day period), animals were euthanized. Euthanasia occurred four hours after animals received their first dose on the morning of Day 21. Hind limbs were collected following euthanasia, with the left limb being used for H&E staining.
All data measured and recorded was analyzed using SPSS 16.0 software. Groups were compared using one-way ANOVA and significance was set at p<0.05.
Arthritis was induced in Lewis rats by immunizing animals with the CFA+Collagen emulsion via subcutaneous injection at the base of the tail on day 0. Seven days after the first immunization, animals received a booster immunization with the IFA+Collagen emulsion via subcutaneous injection at the base of the tail.
Starting on day 0, animals in group 1 and 2 were administered daily doses of the vehicle per os (P.O.) for 21 days. […] The twice daily doses for animals in groups 4-9 were 8 hours apart (e.g., the first dose at 8:00 AM and the second dose at 4:00 PM).

For `CNC(=O)c1[nH]c(C(=O)NC2CCC2)cc1O[C@@H](C)c1ccccc1` [Example 101, N^5-cyclobutyl-N^2-methyl-3-(1-phenylethoxy)-1H-pyrrole-2,5-dicarboxamide], the Animal body weight [1] was 180 g, the “Animal body weight percent change” value [1] was 9.70% and the Animal body weight (Group 5 (CIA + Example 101 3 mg/kg), Day 14, individual animals, 3 mg/kg) was 180 g. The Animal body weight [2] was 150 g and 170 g, the “Animal body weight percent change” value [2] was 0.58% and the Animal body weight [3] was 170 g. For the same compound, the “Animal body weight percent change” value [3] was −4.40%, the “Animal body weight percent change” value (Group 5 (CIA + Example 101 3 mg/kg), Day 18, individual animals, 3 mg/kg) was −4.40% and 0.00% and the Animal body weight (Group 5 (CIA + Example 101 3 mg/kg), Day 19, individual animals, 3 mg/kg) was 150 g and 170 g. The Animal body weight [4] was 160 g and 170 g, the “Animal body weight percent change” value [4] was −4.40% and 0.60% and the “Animal body weight percent change” value (Group 5 (CIA + Example 101 3 mg/kg), Day 21, individual animals, 3 mg/kg) was 0.60%. For the same compound, the “Animal body weight percent change” value (Group 6 (CIA + Example 101 10 mg/kg), Day 0, individual animals) was 0.00%, the Animal body weight (Group 6 (CIA + Example 101 10 mg/kg), Day 0, individual animals, 10 mg/kg) was 170 g and 160 g and the “Animal body weight percent change” value (Group 6 (CIA + Example 101 10 mg/kg), Day 1, individual animals, 10 mg/kg) was 0.00% and 0.64% and 5.00%. For the same compound, the Animal body weight [5] was 160 g, the “Animal body weight percent change” value [5] was 0.62% and the “Animal body weight percent change” value (Group 6 (CIA + Example 101 10 mg/kg), Day 3, individual animals, 10 mg/kg) was 0.59%. The “Animal body weight percent change” value (Group 6 (CIA + Example 101 10 mg/kg), Day 4, individual animals, 10 mg/kg) was 0.58% and 0.59% and 3.70% and −0.61% and 7.50%, the Animal body weight [6] was 170 g and 160 g and the “Animal body weight percent change” value [6] was −0.62%. The Animal body weight [7] was 170 g, the “Animal body weight percent change” value [7] was −1.76% and 10.00% and the Animal body weight [8] was 180 g. The “Animal body weight percent change” value [8] was −0.61%, the Animal body weight (Group 6 (CIA + Example 101 10 mg/kg), Day 8, individual animals, 10 mg/kg) was 180 g and the “Animal body weight percent change” value (Group 6 (CIA + Example 101 10 mg/kg), Day 9, individual animals, 10 mg/kg) was 3.70%. The “Animal body weight percent change” value (Group 6 (CIA + Example 101 10 mg/kg), Day 10, individual animals, 10 mg/kg) was 0.00%, the “Animal body weight percent change” value (Group 6 (CIA + Example 101 10 mg/kg), Day 11, individual animals, 10 mg/kg) was −0.59% and 0.62% and the Animal body weight [9] was 150 g and 160 g. The “Animal body weight percent change” value [9] was 0.62% and −0.62%, the Animal body weight [10] was 170 g and the “Animal body weight percent change” value [10] was −0.62%. The “Animal body weight percent change” value (Group 6 (CIA + Example 101 10 mg/kg), Day 16, individual animals, 10 mg/kg) was 0.00% and −0.62%, the “Animal body weight percent change” value (Group 6 (CIA + Example 101 10 mg/kg), Day 17, individual animals, 10 mg/kg) was 0.62% and 20.00% and the Animal body weight [11] was 160 g. For the same compound, the “Animal body weight percent change” value [11] was 0.00%, the Animal body weight [12] was 170 g and 160 g (2×) and the “Animal body weight percent change” value [12] was −0.58%. The Animal body weight [13] was 170 g, the “Animal body weight percent change” value [13] was −0.62% and −0.61% and the “Animal body weight percent change” value (Group 6 (CIA + Example 101 10 mg/kg), Day 21, individual animals, 10 mg/kg) was −0.62%. For the same compound, the “Animal body weight percent change” value (Group 7 (CIA + Example 101 30 mg/kg), Day 0, individual animals) was 0.00%, the Animal body weight [14] was 160 g and 170 g and the “Animal body weight percent change” value [14] was −0.61% and 1.20%. It also gave an Animal body weight (Group 7 (CIA + Example 101 30 mg/kg), Day 2, individual animals, 30 mg/kg) of 170 g, an Animal body weight (Group 7 (CIA + Example 101 30 mg/kg), Day 3, individual animals, 30 mg/kg) of 160 g and an Animal body weight (Group 7 (CIA + Example 101 30 mg/kg), Day 4, individual animals, 30 mg/kg) of 160 g. The “Animal body weight percent change” value (Group 7 (CIA + Example 101 30 mg/kg), Day 5, individual animals, 30 mg/kg) was 0.00% and 0.61%, the “Animal body weight percent change” value (Group 7 (CIA + Example 101 30 mg/kg), Day 7, individual animals, 30 mg/kg) was 0.61% and the “Animal body weight percent change” value (Group 7 (CIA + Example 101 30 mg/kg), Day 8, individual animals, 30 mg/kg) was 7.10% and −0.61% (2×) and −0.60%. The Animal body weight [15] was 170 g, the “Animal body weight percent change” value [15] was −0.58% and the “Animal body weight percent change” value (Group 7 (CIA + Example 101 30 mg/kg), Day 10, individual animals, 30 mg/kg) was −0.58% and 0.00% (2×). The Animal body weight [16] was 170 g, the “Animal body weight percent change” value [16] was 0.61% and the Animal body weight [17] was 170 g and 160 g. For the same compound, the “Animal body weight percent change” value [17] was 1.20%, the Animal body weight [18] was 170 g and 160 g and the “Animal body weight percent change” value [18] was −0.61% and 1.30%. For the same compound, the “Animal body weight percent change” value (Group 7 (CIA + Example 101 30 mg/kg), Day 14, individual animals, 30 mg/kg) was 2.60%, the Animal body weight [19] was 170 g and 160 g and the “Animal body weight percent change” value [19] was 0.00% (2×) and 3.90%. For the same compound, the “Animal body weight percent change” value (Group 7 (CIA + Example 101 30 mg/kg), Day 16, individual animals, 30 mg/kg) was 0.65%, the Animal body weight [20] was 170 g and the “Animal body weight percent change” value [20] was 1.30%. The “Animal body weight percent change” value (Group 7 (CIA + Example 101 30 mg/kg), Day 18, individual animals, 30 mg/kg) was −0.58% and −1.30%, the “Animal body weight percent change” value (Group 7 (CIA + Example 101 30 mg/kg), Day 19, individual animals, 30 mg/kg) was −1.20% and the Animal body weight [21] was 160 g. For the same compound, the “Animal body weight percent change” value [21] was 6.10%, the Animal body weight [22] was 150 g and the “Animal body weight percent change” value [22] was 6.10% and −2.60%.
